# Measurements: PMC7803423, “Identification of CTL Epitopes on Efflux Pumps of the ATP-Binding Cassette and the Major Facilitator Superfamily of Mycobacterium tuberculosis” (Journal of Immunology Research, 2021)
# What was measured:
# HLA-A*0201 on T2A2 cells = molecular target: T1, HLA-A*0201 on T2A2 cells (Homo sapiens, UniProt P04439, D140Y/D185E/D98H/E176V/E277Q/G131W/G231S/I119V/I121R/I166T/I218V/L300P/L318F/N151K/N90K/P208A/P217A/Q86G/Q94H/R138H/R169H/T345S); experiment: T2A2 cell binding affinity assay; settings: 50 μg/mL peptide + 3 μg/mL β2-M; for FI (fluorescence index): FI = [MFI of the peptide − MFI of the background]/[MFI of the background], T2A2 cells, 18 h; for MFI: T2A2 cells 1 × 10^6 cells/mL, 37°C 18 h, HLA-A2 antibody BB7.2, flow cytometry, background MFI 131
# T1 construct: T2A2 cells (1 × 10^6 cells/mL) resuspended in serum-free IMDM medium were seeded in 24-well plates; endogenous in cells; host or cells: T2A2 cells
# [1] = molecular target: T2, peptide/HLA-A*0201 complex on T2A2 cells (Homo sapiens, UniProt P04439, D140Y/D185E/D98H/E176V/E277Q/G131W/G231S/I119V/I121R/I166T/I218V/L300P/L318F/N151K/N90K/P208A/P217A/Q86G/Q94H/R138H/R169H/T345S); experiment: Peptide/HLA-A*0201 complex stability assay; type: binding; settings: time for loss of 50% of peptide/HLA-A*0201 complexes stabilized at 0 h, 50 μg/mL peptide, 18 h, brefeldin A 10 μg/mL 1 h, then 0, 2, 4, 6 h at 37°C, flow cytometry
# T2 construct: endogenous in cells; host or cells: T2A2 cells
# Experimental: The peptide/MHC complex stabilization assays were performed similarly. T2A2 cells were incubated with 50 μg/mL peptides and 3 μg/mL β2-M for 18 h. Then, 10 μg/mL brefeldin A (203729, Sigma, USA) were added in medium for another 1 h, subsequently washed by serum-free IMDM medium and incubated at 37°C for 0, 2, 4, and 6 h. Finally, cells were washed twice, stained with HLA-A2-PE-Cyanine 7 monoclonal antibody, and analyzed by flow cytometer (FACS Calibur, BD Bioscience, USA). DC50 was defined as an estimate of the time required for the loss of 50% of the peptide/HLA-A^∗0201 complexes stabilized at time 0 h.
# [2] = tested on: peptide-induced CTLs from HLA-A*02+PPD+ donors; experiment: IFN-γ ELISPOT of peptide-induced CTLs in vitro; type: cell-based, human; settings: CTLs induced with peptide-loaded DCs from HLA-A*02+PPD+ donors, day 21; stimulators peptide-loaded T2A2 cells, 18 h
# [3] = tested on: peptide-induced CD8+ T cells from HLA-A*02+ PPD+ / PPD− donors; experiment: Intracellular cytokine IFN-γ staining (ICS) of peptide-induced CTLs in vitro; type: cell-based, human; settings: for CD8+ IFN-γ+ T cells, PPD+ donors compared with PPD− donors: n = 3 donors each, Student's t-test; for CD8+ IFN-γ+ T cells, PPD+ donors compared with PBS-treated group: n = 3 donors
# [4] = tested on: peptide-pulsed T2A2 cells; experiment: LDH cytotoxicity assay of peptide-induced CTLs in vitro; type: cell-based, human; settings: E : T ratio 50 : 1, CTLs from HLA-A*02+PPD+ donors, T2A2 cells pulsed with corresponding peptide, 4 h, n = 4
# IFN-γ = experiment: Serum IFN-γ ELISA after peptide immunization; type: in vivo, HLA-A2.1/K^b transgenic mice; settings: serum day 11, n = 5
# [5] = tested on: CD8+ T cells of splenic lymphocytes; experiment: ICS assay of restimulated splenic lymphocytes from immunized mice; type: in vivo, HLA-A2.1/K^b transgenic mice; settings: ICS on day 7 of restimulation, n = 5
# [6] = tested on: peptide-loaded T2A2 cells; experiment: LDH lysis assay with CTLs from immunized mice; type: in vivo, HLA-A2.1/K^b transgenic mice; settings: peptide-loaded T2A2 target cells, n = 5
# [7] = CFA day -14 then peptide in IFA
Sequence,FI (fluorescence index) (HLA-A*0201 on T2A2 cells),MFI (HLA-A*0201 on T2A2 cells),DC50 [1],further results
"SLVSQPPTL [Rv1218c-p280, predicted HLA-A2-restricted 9-mer peptide … from MTB efflux pump antigen Rv1218c]",1.62,353,<2 h,–
"YLLGGTVVV [Rv1877-p71, predicted HLA-A2-restricted 9-mer peptide … from MTB efflux pump antigen Rv1877]",2.17,419,>2 h,–
"LLLSKPDLL [Rv2477c-p173, predicted HLA-A2-restricted 9-mer peptide … from MTB efflux pump antigen Rv2477c]",1.15,272,–,–
"TLFKTIVGL [Rv2477c-p362, predicted HLA-A2-restricted 9-mer peptide … from MTB efflux pump antigen Rv2477c]",1.72,367,> 2 h,–
"LLDEPTSAL [Rv0933-p186, predicted HLA-A2-restricted 9-mer peptide … from MTB efflux pump antigen Rv0933]",2.52,465,<2 h,–
"ALCEKVTII [Rv1218c-p200, predicted HLA-A2-restricted 9-mer peptide … from MTB efflux pump antigen Rv1218c]",1.75,366,> 4 h,DC50 ([1]; listed as Rv1218c-P200): >4 h
"LLDEPSSGL [Rv1218c-p158, predicted HLA-A2-restricted 9-mer peptide … from MTB efflux pump antigen Rv1218c]",2.35,439,>4 h,"IFN-γ secretion of peptide-induced CTLs (ELISPOT) [2]: secreted IFN-γ most potently; CD8+ IFN-γ+ T cells, PPD+ donors compared with PPD− donors [3]: significantly more CD8^+ IFN-γ^+ T cells"
"SLADRLTVI [Rv0933-p208, predicted HLA-A2-restricted 9-mer peptide … from MTB efflux pump antigen Rv0933]",2.59,479,<2 h,–
"RLGNVVVEV [Rv2477c-p316, predicted HLA-A2-restricted 9-mer peptide … from MTB efflux pump antigen Rv2477c]",1.58,348,>2 h,–
"LMMPQTVTV [Rv2994-p223, predicted HLA-A2-restricted 9-mer peptide … from MTB efflux pump antigen Rv2994]",2.28,430,<2 h,–
"VLATGVTLV [Rv2209-p158, predicted HLA-A2-restricted 9-mer peptide … from MTB efflux pump antigen Rv2209]",2.54,462,>4 h,–
"VLAADAVFV [Rv2459c-p469, predicted HLA-A2-restricted 9-mer peptide … from MTB efflux pump antigen Rv2459c]",2.36,440,>4 h,"IFN-γ secretion of peptide-induced CTLs (ELISPOT) [2]: secreted IFN-γ most potently; CD8+ IFN-γ+ T cells, PPD+ donors compared with PBS-treated group [3]: more CD8^+ IFN-γ^+ T cells than the PBS-treated group; CD8+ IFN-γ+ T cells, PPD+ donors compared with PPD− donors [3]: significantly more CD8^+ IFN-γ^+ T cells"
"GLDPLMENV [Rv1218c-p165, predicted HLA-A2-restricted 9-mer peptide … from MTB efflux pump antigen Rv1218c]",2.6,479,> 2 h,–
"WMSIGVFSV [Rv1819c-p122, predicted HLA-A2-restricted 9-mer peptide … from MTB efflux pump antigen Rv1819c]",0.35,177,–,–
"ILIGETIKI [COX-2-p321, reference compound]",2.11,408,>4 h,–
ALDGLDLTV [Rv1218c-p24],3.32,569,>4 h,"IFN-γ secretion of peptide-induced CTLs (ELISPOT) [2]: secreted IFN-γ most potently; CD8+ IFN-γ+ T cells, PPD+ donors compared with PBS-treated group [3]: more CD8^+ IFN-γ^+ T cells than the PBS-treated group; CD8+ IFN-γ+ T cells, PPD+ donors compared with PPD− donors [3]: significantly more CD8^+ IFN-γ^+ T cells; lysis rate [4]: 88.6%; serum IFN-γ concentration (ELISA), CFA preimmunization (IFN-γ; CFA 200 μL s.c. day -14, then peptide 100 μg/mice + T helper epitope 140 μg/mice in IFA days 0, 5, 10): 1817.0 pg/mL; serum IFN-γ concentration (ELISA), IFA (IFN-γ; peptide 100 μg/mice + T helper epitope 140 μg/mice in IFA 1 : 1, s.c. base of tail, days 0, 5, 10): 363 pg/mL; CD8+ IFN-γ+ T cells compared with NS group, CFA preimmunization [5, 7]: produced more CD8^+ IFN-γ^+ T cells than the NS group; CD8+ IFN-γ+ T cells compared with NS group, IFA ([5]; IFA immunization): induced more CD8^+IFN-γ^+ T cells than the NS group; lysis rate, CFA preimmunization, E : T 40 : 1 [6, 7]: 24.6%; lysis rate, CFA preimmunization, E : T 80 : 1 [6, 7]: 41.2%; lysis rate, IFA, E : T 80 : 1 ([6]; IFA immunization): 26.4%"
"RLTEELAWV [Rv2477c-p265, predicted HLA-A2-restricted 9-mer peptide … from MTB efflux pump antigen Rv2477c]",1.36,315,–,–
